Data reported in patent publication US8039486B2, “Indole, azaindole and related heterocyclic N-substituted piperazine derivatives” (priority 2003, dated 2011).

Each molecule was assayed on HIV-1 single-round infectious reporter virus (assay: Single-round infectious HIV-1 luciferase reporter virus infection of HeLa CD4 cells). Settings: Human immunodeficiency virus 1, HeLa, 72 h, read-out: EC50 Group from Table 1.
Assay type: cell-based
Method: • Virus production—Human embryonic Kidney cell line, 293, was propagated in Dulbecco's Modified Eagle Medium (Invitrogen, Carlsbad, Calif.) containing 10% fetal Bovine serum (FBS, Sigma, St. Louis, Mo.). • Virus infection—Human epithelial cell line, HeLa, expressing the HIV-1 receptor CD4 was propagated in Dulbecco's Modified Eagle Medium (Invitrogen, Carlsbad, Calif.) containing 10% fetal Bovine serum (FBS, Sigma, St. Louis, Mo.) and supplemented with 0.2 mg/mL Geneticin (Invitrogen, Carlsbad, Calif.). Virus-Single-round infectious reporter virus was produced by co-transfecting human embryonic Kidney 293 cells with an HIV-1 envelope DNA expression vector and a proviral cDNA containing an envelope deletion mutation and the luciferase reporter gene inserted in place of HIV-1 nef sequences (Chen et al, Ref 41). Transfections were performed using lipofectAMINE PLUS reagent as described by the manufacturer (Invitrogen, Carlsbad, Calif.). Experiment • 1. HeLa CD4 cells were plated in 96 well plates at a cell density of 1×10^4 cells per well in 100 μl Dulbecco's Modified Eagle Medium containing 10% fetal Bovine serum and incubated overnight. • 2. Compound was added in a 2 μl dimethylsulfoxide solution, so that the final assay concentration would be ≦10 μM. • 3. 100 μl of single-round infectious reporter virus in Dulbecco's Modified Eagle Medium was then added to the plated cells and compound at an approximate multiplicity of infection (MOI) of 0.01, resulting in a final volume of 200 μl per well. • 4. Virally-infected cells were incubated at 37 degrees Celsius, in a CO2 incubator, and harvested 72 h after infection. • 5. Viral infection was monitored by measuring luciferase expression from viral DNA in the infected cells using a luciferase reporter gene assay kit, as described by the manufacturer (Roche Molecular Biochemicals, Indianapolis, Ind.). Infected cell supernatants were removed and 50 μl of lysis buffer was added per well. After 15 minutes, 50 μl of freshly-reconstituted luciferase assay reagent was added per well. Luciferase activity was then quantified by measuring luminescence using a Wallac microbeta scintillation counter. • 6. The percent inhibition for each compound was calculated by quantifying the level of luciferase expression in cells infected in the presence of each compound as a percentage of that observed for cells infected in the absence of compound and subtracting such a determined value from 100. • 7. An EC50 provides a method for comparing the antiviral potency of the compounds of this invention. The effective concentration for fifty percent inhibition (EC50) was calculated with the Microsoft Excel Xlfit curve fitting software. For each compound, curves were generated from percent inhibition calculated at 10 different concentrations by using a four paramenter logistic model (model 205). Table 1 is the key for the data in Table 2. Results

`COc1cnc(-n2cnc(C)n2)c2[nH]cc(C(=O)C(=O)N3CCN(c4nc(N)cc5ccccc45)CC3)c12` [Example 65] and `COc1cnc(-n2cnc(C)n2)c2[nH]cc(C(=O)C(=O)N3CCN(c4nc(Cl)cc5ccccc45)CC3)c12` [Example 66] cannot be ordered by EC50: under 1000 nM for the first, under 1000 nM for the second.

`COc1cnc(-n2ccnn2)c2[nH]cc(C(=O)C(=O)N3CCN(c4nc(Cl)cc5ccccc45)CC3)c12` [Example 67] and `O=C(C(=O)N1CCN(c2nc(Cl)cc3ccccc23)CC1)c1c[nH]c2c(-n3ccnn3)ncc(F)c12` [Example 68] cannot be ordered by EC50: under 1000 nM for the first, under 1000 nM for the second.

`COc1cnc(-n2cnc(C#N)n2)c2[nH]cc(C(=O)C(=O)N3CCN(c4ncnc5ccccc45)CC3)c12` [Example 69] and `COc1cnc(-n2cnc(C(N)=O)n2)c2[nH]cc(C(=O)C(=O)N3CCN(c4ncnc5ccccc45)CC3)c12` [Example 70] cannot be ordered by EC50: under 1000 nM for the first, under 1000 nM for the second.

`O=C(C(=O)N1CCN(c2nccc3ccccc23)CC1)c1c[nH]c2c(-c3ccccn3)ncc(F)c12` [Example 72] and `O=C(C(=O)N1CCN(c2nncc3ccccc23)CC1)c1c[nH]c2c(-c3ccccn3)ncc(F)c12` [Example 77] cannot be ordered by EC50: under 1000 nM for the first, under 1000 nM for the second.

`O=C(C(=O)N1CCN(c2ncnc3ccccc23)CC1)c1c[nH]c2c(Br)ncc(F)c12` [Example 73] and `O=C(C(=O)N1CCN(c2nncc3ccccc23)CC1)c1c[nH]c2c(Br)ncc(F)c12` [Example 92] cannot be ordered by EC50: under 1000 nM for the first, under 1000 nM for the second.

`COc1cnc(Cl)c2[nH]cc(C(=O)C(=O)N3CCN(c4ncnc5ccccc45)CC3)c12` [Example 75] and `COc1cnc(-c2cc[nH]n2)c2[nH]cc(C(=O)C(=O)N3CCN(c4ncnc5ccccc45)CC3)c12` [Example 96] cannot be ordered by EC50: under 1000 nM for the first, under 1000 nM for the second.

`O=C(C(=O)N1CCN(c2nncc3ccccc23)CC1)c1c[nH]c2c(-c3cnccn3)ncc(F)c12` [Example 78] and `O=C(C(=O)N1CCN(c2nncc3ccccc23)CC1)c1c[nH]c2c(-c3cn[nH]c3)ncc(F)c12` [Example 93] cannot be ordered by EC50: under 1000 nM for the first, under 1000 nM for the second.

Compared with `O=C(C(=O)N1CCN(c2ncnc3ccccc23)CC1)c1c[nH]c2c(-c3ccncc3)ncc(F)c12` [Example 79], `O=C(C(=O)N1CCN(c2ncnc3ccccc23)CC1)c1c[nH]c2c(-c3cccnc3)ncc(F)c12` [Example 83] is lower in EC50: 1000 to 5000 nM for the first, under 1000 nM for the second.

`COc1cnc(-c2cncnc2)c2[nH]cc(C(=O)C(=O)N3CCN(c4ncnc5ccccc45)CC3)c12` [Example 80] and `O=C(C(=O)N1CCN(c2ncnc3ccccc23)CC1)c1c[nH]c2c(-c3cncnc3)ncc(F)c12` [Example 81] cannot be ordered by EC50: under 1000 nM for the first, under 1000 nM for the second.

`COc1ncc(-c2ncc(F)c3c(C(=O)C(=O)N4CCN(c5ncnc6ccccc56)CC4)c[nH]c23)cn1` [Example 82] and `O=C(C(=O)N1CCN(c2ncnc3ccccc23)CC1)c1c[nH]c2c(-c3cn[nH]c3)ncc(F)c12` [Example 95] cannot be ordered by EC50: under 1000 nM for the first, under 1000 nM for the second.

`O=C(C(=O)N1CCN(c2ncnc3ccccc23)CC1)c1c[nH]c2c(-c3ncccn3)ncc(F)c12` [Example 84] and `O=C(C(=O)N1CCN(c2ncnc3ccccc23)CC1)c1c[nH]c2c(-c3cc[nH]n3)ncc(F)c12` [Example 94] cannot be ordered by EC50: under 1000 nM for the first, under 1000 nM for the second.

`COc1cnc(-n2cncn2)c2[nH]cc(C(=O)C(=O)N3CCN(c4ccnc5ccccc45)CC3)c12` [Example 85] and `COc1cc(N2CCN(C(=O)C(=O)c3c[nH]c4c(-n5cncn5)ncc(OC)c34)CC2)c2cc(C)ccc2n1` [Example 86] cannot be ordered by EC50: under 1000 nM for the first, under 1000 nM for the second.

`N#Cc1ncc(F)c2c(C(=O)C(=O)N3CCN(c4nccc5ccccc45)CC3)c[nH]c12` [Example 87] and `O=C(C(=O)N1CCN(c2nccc3ccccc23)CC1)c1c[nH]c2c(-c3nc(-c4ccccc4)n[nH]3)ncc(F)c12` [Example 88] cannot be ordered by EC50: under 1000 nM for the first, under 1000 nM for the second.

`N=C(NNC(=O)c1ccccc1)c1ncc(F)c2c(C(=O)C(=O)N3CCN(c4nccc5ccccc45)CC3)c[nH]c12` [Example 89] and `O=C(C(=O)N1CCN(c2ccc3ccccc3n2)CC1)c1c[nH]c2c(-n3ccnn3)ncc(F)c12` [Example 91] cannot be ordered by EC50: under 1000 nM for the first, under 1000 nM for the second.

With `COc1cnc(-n2cnc(C)n2)c2[nH]cc(C(=O)C(=O)N3CCN(c4ccc5ccccc5n4)CC3)c12` [Example 90] the EC50 was under 1000 nM.
